CN1CCN(C2=Nc3cc(Cl)ccc3Nc3ccccc32)CC1
solubility (mole fraction)
Conditions	278.15 K	283.15 K	288.15 K	293.15 K	298.15 K	303.15 K	308.15 K	313.15 K	318.15 K	323.15 K
in 2-butanone	0.0216	0.0242	0.0274	0.0303	0.0339	0.0374	0.0416	0.0458	0.0505	0.0558
in DMF	0.0953	0.1	0.106	0.112	0.117	0.123	0.129	0.135	0.141	0.148
in THF	0.0624	0.0668	0.0716	0.0765	0.0815	0.0866	0.0919	0.0978	0.103	0.109
in acetone	0.0116	0.0133	0.0151	0.0172	0.0197	0.0223	0.0251	0.0283	0.0323	0.0363
in acetonitrile	0.00213	0.00234	0.0026	0.00285	0.00316	0.00344	0.0038	0.00413	0.00452	0.0049
in chloroform	0.0625	0.0652	0.0681	0.0712	0.0741	0.0771	0.0801	0.0837	0.0871	0.0905
in ethanol	0.00533	0.0059	0.0066	0.00735	0.00811	0.0089	0.00988	0.0108	0.0119	0.0131
in ethyl acetate	0.0109	0.0121	0.0135	0.0152	0.0169	0.0191	0.0209	0.0232	0.0256	0.0283
in ethyl formate	0.032	0.0343	0.0367	0.0393	0.0419	0.0443	0.047	0.0499	0.0527	0.0564
in isobutanol	0.00666	0.00731	0.00809	0.00888	0.00987	0.0108	0.0119	0.013	0.0142	0.0155
in isopentanol	0.0083	0.00932	0.0103	0.0116	0.0128	0.0142	0.0156	0.0173	0.019	0.0212
in isopropanol	0.00278	0.00322	0.00367	0.00419	0.00487	0.00544	0.00615	0.00693	0.00781	0.00894
in methanol	0.00633	0.00702	0.00766	0.00839	0.00921	0.00999	0.0109	0.012	0.013	0.014
in methyl acetate	0.0124	0.0141	0.0158	0.0173	0.019	0.021	0.0229	0.0251	0.0277	0.0303
in n-butanol	0.00796	0.00891	0.01	0.0113	0.0126	0.0141	0.0154	0.0172	0.0189	0.0208
in n-pentanol	0.00905	0.0102	0.0115	0.0128	0.0143	0.0159	0.0174	0.0193	0.0213	0.0231
in n-propanol	0.00708	0.00814	0.00924	0.0105	0.0118	0.0134	0.0148	0.0164	0.0183	0.0204
in sec-butanol	0.0046	0.00509	0.00566	0.00617	0.0068	0.00744	0.00812	0.00893	0.00975	0.0107
